One experiment addresses T1, FLT3-D835Y (Homo sapiens, UniProt P36888, D835Y).
T1 construct: purchased Invitrogen PV3967
T1 sequence (P36888 27-993 D835Y): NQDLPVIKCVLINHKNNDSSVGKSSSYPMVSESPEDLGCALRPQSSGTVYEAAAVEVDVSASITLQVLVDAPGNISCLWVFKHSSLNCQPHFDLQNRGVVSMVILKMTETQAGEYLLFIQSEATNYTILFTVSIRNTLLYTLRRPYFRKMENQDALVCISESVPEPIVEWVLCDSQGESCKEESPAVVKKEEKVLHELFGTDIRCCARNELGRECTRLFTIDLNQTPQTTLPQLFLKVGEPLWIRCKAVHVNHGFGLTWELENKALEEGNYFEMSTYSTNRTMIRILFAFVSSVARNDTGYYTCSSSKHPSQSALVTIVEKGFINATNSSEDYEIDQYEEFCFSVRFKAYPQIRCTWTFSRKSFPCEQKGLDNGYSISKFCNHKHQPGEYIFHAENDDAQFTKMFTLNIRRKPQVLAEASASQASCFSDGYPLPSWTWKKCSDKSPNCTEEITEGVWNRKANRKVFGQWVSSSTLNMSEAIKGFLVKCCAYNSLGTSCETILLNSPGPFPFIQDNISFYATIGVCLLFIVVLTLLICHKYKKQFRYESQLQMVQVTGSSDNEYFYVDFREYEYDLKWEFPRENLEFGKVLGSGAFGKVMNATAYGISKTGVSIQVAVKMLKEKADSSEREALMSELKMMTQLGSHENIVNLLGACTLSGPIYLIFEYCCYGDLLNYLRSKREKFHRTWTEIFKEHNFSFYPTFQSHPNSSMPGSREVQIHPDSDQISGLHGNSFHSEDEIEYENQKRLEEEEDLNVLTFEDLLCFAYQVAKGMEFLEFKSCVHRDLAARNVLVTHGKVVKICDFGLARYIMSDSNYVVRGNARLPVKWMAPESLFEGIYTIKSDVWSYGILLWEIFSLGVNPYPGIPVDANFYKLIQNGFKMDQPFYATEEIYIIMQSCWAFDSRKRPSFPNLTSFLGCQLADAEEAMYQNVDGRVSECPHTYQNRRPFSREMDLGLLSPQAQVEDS
The experiment can be described thus: FLT3-D835Y recombinant enzyme kinase assay (AlphaScreen). Format: biochemical. The settings on record: 8 pt, GMean. The essentials: (§1)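 IC50 values are derived from reduced AlphaScreen signal as inhibitors block tyrosine phosphorylation of a biotinylated poly(Glu4-Tyr) peptide (30 nM) by recombinant kinase. FLT3 variants are run at 10 μM ATP, c-KIT at 100 μM.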
Background: Bead proximity is the source of the signal in Alpha formats.

A further experiment deals with T2, FLT3-ITD (Homo sapiens, UniProt P36888).
T2 sequence (P36888 1-993): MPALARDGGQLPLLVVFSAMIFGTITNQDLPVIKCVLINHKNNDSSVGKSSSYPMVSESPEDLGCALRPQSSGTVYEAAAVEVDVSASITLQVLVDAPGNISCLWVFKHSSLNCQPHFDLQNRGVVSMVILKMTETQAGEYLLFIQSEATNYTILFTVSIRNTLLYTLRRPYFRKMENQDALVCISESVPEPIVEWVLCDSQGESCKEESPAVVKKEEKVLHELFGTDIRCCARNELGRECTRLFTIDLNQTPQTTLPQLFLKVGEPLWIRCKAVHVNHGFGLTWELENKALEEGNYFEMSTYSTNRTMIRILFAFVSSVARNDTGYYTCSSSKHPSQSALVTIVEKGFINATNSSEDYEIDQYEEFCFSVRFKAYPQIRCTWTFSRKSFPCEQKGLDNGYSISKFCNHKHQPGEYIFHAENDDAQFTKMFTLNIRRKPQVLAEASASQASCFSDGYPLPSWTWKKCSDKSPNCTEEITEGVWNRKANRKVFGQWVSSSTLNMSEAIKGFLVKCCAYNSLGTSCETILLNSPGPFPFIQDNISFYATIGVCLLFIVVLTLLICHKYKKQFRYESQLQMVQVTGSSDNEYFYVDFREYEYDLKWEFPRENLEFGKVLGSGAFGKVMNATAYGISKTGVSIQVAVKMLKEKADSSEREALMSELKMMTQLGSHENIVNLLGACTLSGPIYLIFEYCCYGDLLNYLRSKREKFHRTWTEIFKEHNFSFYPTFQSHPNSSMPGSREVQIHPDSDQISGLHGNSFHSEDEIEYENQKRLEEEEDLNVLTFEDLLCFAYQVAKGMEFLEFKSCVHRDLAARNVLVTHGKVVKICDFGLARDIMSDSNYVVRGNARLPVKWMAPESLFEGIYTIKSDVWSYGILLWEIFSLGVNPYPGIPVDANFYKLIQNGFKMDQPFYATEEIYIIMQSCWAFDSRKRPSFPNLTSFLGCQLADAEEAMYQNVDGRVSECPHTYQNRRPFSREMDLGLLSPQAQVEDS
The experiment can be described thus: FLT3-ITD recombinant enzyme kinase assay (AlphaScreen). It is filed as biochemical. The settings on record: 8 pt; read-out: FLT3_ITD 8 pt: IC50. A digest of the protocol: as §1

Structures are written as SMILES.

With `COc1ncc(NC(=O)Cc2ccc(-c3cnc(Nc4cn(C)cn4)nc3)cc2F)cc1C(F)(F)F` [Compound P-0101, 2-[2-fluoro-4-[2-[(1-methylimidazol-4-yl)amino]pyrimidin-5-yl]phenyl]-N-[6-methoxy-5-(trifluoromethyl)-3-pyridyl]acetamide], the IC50 at FLT3-D835Y and at FLT3-ITD was 0.0001 to 10 µM throughout.
Take `Cn1cc(Nc2ncc(-c3ccc(CC(=O)Nc4cccc(OC(F)(F)F)c4)cc3)cn2)cn1` [Compound P-0157, 2-[4-[2-[(1-methylpyrazol-4-yl)amino]pyrimidin-5-yl]phenyl]-N-[3-(trifluoromethoxy)phenyl]acetamide]: the IC50 on FLT3-D835Y and at FLT3-ITD was 0.0001 to 10 µM each time.
Consider `Cn1cc(Nc2ncc(-c3ccc(CC(=O)Nc4cccc(C(F)(F)F)n4)cc3)cn2)cn1` [Compound P-0152, 2-[4-[2-[(1-methylpyrazol-4-yl)amino]pyrimidin-5-yl]phenyl]-N-[6-(trifluoromethyl)-2-pyridyl]acetamide], for which the IC50 on FLT3-D835Y and at FLT3-ITD was 0.0001 to 10 µM in each case.
`Cn1cc(Nc2ncc(-c3ccc(CC(=O)Nc4cccc(S(C)(=O)=O)c4)cc3)cn2)cn1` [Compound P-0155, 2-[4-[2-[(1-methylpyrazol-4-yl)amino]pyrimidin-5-yl]phenyl]-N-(3-methylsulfonylphenyl)acetamide]: the IC50 at FLT3-D835Y and on FLT3-ITD was 0.0001 to 10 µM each time.
On to `Cc1n[nH]c2ncc(-c3cc(F)c(CC(=O)Nc4cncc(C(F)(F)F)c4)cc3F)cc12` [Compound P-0173, 2-[2,5-difluoro-4-(3-methyl-1H-pyrazolo[3,4-b]pyridin-5-yl)phenyl]-N-[5-(trifluoromethyl)-3-pyridyl]acetamide], for which the IC50 on FLT3-D835Y and on FLT3-ITD was 0.0001 to 10 µM each time.
In the case of `O=C(Cc1ccc(-c2cnc3[nH]c(-c4cnn(C(F)F)c4)cc3c2)c(F)c1)Nc1cncc(C(F)(F)F)c1` [Compound P-0197, 2-[4-[2-[1-(difluoromethyl)pyrazol-4-yl]-1H-pyrrolo[2,3-b]pyridin-5-yl]-3-fluoro-phenyl]-N-[5-(trifluoromethyl)-3-pyridyl]acetamide], the IC50 at FLT3-D835Y and at FLT3-ITD was 0.0001 to 10 µM each time.
Consider `Cn1cc(Nc2ncc(-c3ccc(CC(=O)Nc4cncc(C(F)(F)F)c4)cc3)cn2)cn1` [Compound P-0136, 2-[4-[2-[(1-methylpyrazol-4-yl)amino]pyrimidin-5-yl]phenyl]-N-[5-(trifluoromethyl)-3-pyridyl]acetamide], for which the half-inhibitory concentration (IC50) on FLT3-D835Y and at FLT3-ITD was 0.0001 to 10 µM throughout.
`Cn1cnc(Nc2ncc(-c3ccc(CC(=O)Nc4cnc(Cl)c(C(F)(F)F)c4)c(F)c3)cn2)c1` [Compound P-0100, N-[6-chloro-5-(trifluoromethyl)-3-pyridyl]-2-[2-fluoro-4-[2-[(1-methylimidazol-4-yl)amino]pyrimidin-5-yl]phenyl]acetamide]: the IC50 on FLT3-D835Y and on FLT3-ITD was 0.0001 to 10 µM each time.
For `Cc1ncc(NC(=O)Cc2ccc(-c3cnc(Nc4cn(C)cn4)nc3)cc2F)cc1C(F)(F)F` [Compound P-0099, 2-[2-fluoro-4-[2-[(1-methylimidazol-4-yl)amino]pyrimidin-5-yl]phenyl]-N-[6-methyl-5-(trifluoromethyl)-3-pyridyl]acetamide], the 50% inhibitory concentration (IC50) at FLT3-D835Y and at FLT3-ITD was 0.0001 to 10 µM each time.
As to `Cn1cc(Nc2ncc(-c3ccc(CC(=O)Nc4ccnc(C(F)(F)F)c4)cc3)cn2)cn1` [Compound P-0134, 2-[4-[2-[(1-methylpyrazol-4-yl)amino]pyrimidin-5-yl]phenyl]-N-[2-(trifluoromethyl)-4-pyridyl]acetamide], the IC50 on FLT3-D835Y and at FLT3-ITD was 0.0001 to 10 µM each time.
With `Cn1cc(Nc2ncc(-c3ccc(CC(=O)Nc4ccc(C(C)(C)C#N)nc4)c(F)c3)cn2)cn1` [Compound P-0108, N-[6-(1-cyano-1-methyl-ethyl)-3-pyridyl]-2-[2-fluoro-4-[2-[(1-methylpyrazol-4-yl)amino]pyrimidin-5-yl]phenyl]acetamide], the IC50 at FLT3-D835Y and at FLT3-ITD was 0.0001 to 10 µM in each case.
Consider `Cn1cc(Nc2ncc(-c3ccc(CC(=O)Nc4cc(Cl)c(C5CC5)cn4)c(F)c3)cn2)cn1` [Compound P-0107, N-(4-chloro-5-cyclopropyl-2-pyridyl)-2-[2-fluoro-4-[2-[(1-methylpyrazol-4-yl)amino]pyrimidin-5-yl]phenyl]acetamide], for which the IC50 at FLT3-D835Y and at FLT3-ITD was 0.0001 to 10 µM in each case.
Take `Cn1cc(Nc2ncc(-c3ccc(CC(=O)Nc4ccc(C(F)(F)F)nc4)cc3)cn2)cn1` [Compound P-0095, 2-[4-[2-[(1-methylpyrazol-4-yl)amino]pyrimidin-5-yl]phenyl]-N-[6-(trifluoromethyl)-3-pyridyl]acetamide]: the IC50 on FLT3-D835Y and at FLT3-ITD was 0.0001 to 10 µM in each case.
`Cn1cc(Nc2ncc(-c3ccc(CC(=O)Nc4cc(C(F)(F)F)ncn4)cc3)cn2)cn1` [Compound P-0135, 2-[4-[2-[(1-methylpyrazol-4-yl)amino]pyrimidin-5-yl]phenyl]-N-[6-(trifluoromethyl)pyrimidin-4-yl]acetamide]: the concentration for half-maximal inhibition (IC50) on FLT3-D835Y and on FLT3-ITD was 0.0001 to 10 µM each time.
On to `Cc1ncc(NC(=O)Cc2ccc(-c3cnc(Nc4cn(C)cn4)nc3)cc2)cc1C(F)(F)F` [Compound P-0150, 2-[4-[2-[(1-methylimidazol-4-yl)amino]pyrimidin-5-yl]phenyl]-N-[6-methyl-5-(trifluoromethyl)-3-pyridyl]acetamide], for which the IC50 on FLT3-D835Y and at FLT3-ITD was 0.0001 to 10 µM throughout.
On to `Cn1cc(Nc2ncc(-c3ccc(CC(=O)Nc4cccc(C(F)(F)F)c4)cc3)cn2)cn1` [Compound P-0141, 2-[4-[2-[(1-methylpyrazol-4-yl)amino]pyrimidin-5-yl]phenyl]-N-[3-(trifluoromethyl)phenyl]acetamide], for which the IC50 on FLT3-D835Y and at FLT3-ITD was 0.0001 to 10 µM each time.
On to `O=C(Cc1ccc(-c2cnc3[nH]c(-c4ccccc4)cc3c2)cn1)Nc1ccnc(C(F)(F)F)c1` [Compound P-0005, 2-[5-(2-phenyl-1H-pyrrolo[2,3-b]pyridin-5-yl)-2-pyridyl]-N-[2-(trifluoromethyl)-4-pyridyl]acetamide], for which the IC50 on FLT3-D835Y and at FLT3-ITD was 0.0001 to 10 µM throughout.
As to `Cn1cc(Nc2ncc(-c3ccc(CC(=O)Nc4cc(C(F)(F)F)ccn4)cc3)cn2)cn1` [Compound P-0139, 2-[4-[2-[(1-methylpyrazol-4-yl)amino]pyrimidin-5-yl]phenyl]-N-[4-(trifluoromethyl)-2-pyridyl]acetamide], the IC50 at FLT3-D835Y and at FLT3-ITD was 0.0001 to 10 µM each time.
For `Cn1cc(Nc2ncc(-c3ccc(CC(=O)Nc4cc(Cl)c(C5CC5)cn4)cc3)cn2)cn1` [Compound P-0164, N-(4-chloro-5-cyclopropyl-2-pyridyl)-2-[4-[2-[(1-methylpyrazol-4-yl)amino]pyrimidin-5-yl]phenyl]acetamide], the IC50 at FLT3-D835Y and on FLT3-ITD was 0.0001 to 10 µM throughout.

For the origin of these results see patent US10160747B2, “Compounds and methods for kinase modulation, and indications therefor” (Plexxikon Inc., priority 2016, dated 2018).
